Measured values reported in patent publication US20260062422A1 (Halda Therapeutics OpCo, Inc., priority 2022, published 2026).

How the values were obtained:
[1] = target: T1, androgen receptor (Homo sapiens, UniProt P10275); assay: Assay for binding affinity to androgen receptor ([3H]methyltrienolone radioligand, cell cytosol); conditions: 1 nM [3H]methyltrienolone, 24 hours at 4° C., Table 5
T1 sequence (P10275 1-920 T878A): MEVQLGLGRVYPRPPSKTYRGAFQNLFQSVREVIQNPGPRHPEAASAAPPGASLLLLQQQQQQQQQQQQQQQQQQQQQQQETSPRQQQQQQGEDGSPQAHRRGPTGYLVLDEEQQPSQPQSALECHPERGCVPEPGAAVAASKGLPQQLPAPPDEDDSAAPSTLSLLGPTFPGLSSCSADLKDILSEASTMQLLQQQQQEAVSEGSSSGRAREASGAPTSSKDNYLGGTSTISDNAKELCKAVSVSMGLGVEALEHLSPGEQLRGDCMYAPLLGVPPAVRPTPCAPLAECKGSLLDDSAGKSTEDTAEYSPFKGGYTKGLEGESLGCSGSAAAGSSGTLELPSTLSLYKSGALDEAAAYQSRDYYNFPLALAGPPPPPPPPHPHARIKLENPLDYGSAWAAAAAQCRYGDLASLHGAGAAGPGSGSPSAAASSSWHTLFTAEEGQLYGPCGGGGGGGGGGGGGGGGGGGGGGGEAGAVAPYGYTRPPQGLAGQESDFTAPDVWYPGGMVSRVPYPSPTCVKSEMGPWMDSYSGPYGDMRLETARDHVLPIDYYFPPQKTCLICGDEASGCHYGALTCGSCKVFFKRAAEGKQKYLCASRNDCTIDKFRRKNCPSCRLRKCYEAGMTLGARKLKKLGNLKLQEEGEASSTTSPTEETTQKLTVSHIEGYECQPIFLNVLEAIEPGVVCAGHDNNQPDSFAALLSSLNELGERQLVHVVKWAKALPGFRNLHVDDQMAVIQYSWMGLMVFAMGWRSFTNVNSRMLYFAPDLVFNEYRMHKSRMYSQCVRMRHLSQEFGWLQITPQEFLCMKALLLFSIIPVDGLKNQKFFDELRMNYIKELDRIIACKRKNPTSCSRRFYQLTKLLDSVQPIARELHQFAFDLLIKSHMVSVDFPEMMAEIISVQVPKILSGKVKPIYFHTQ
Method: Fractions of cell cytosol ([…] cell/point) were incubated for 24 hours at 4° C. with 1 nM [^3H]methyltrienolone in the absence or presence of the test compound in a buffer containing 25 mM Hepes-Tris (pH 7.4), 1 mM EDTA, 10 mM Na2MoO4, 2 mM DTT, 5 μM triamcinolone acetonide, and 10% glycerol. Nonspecific binding was determined in the presence of 1 μM testosterone. Following incubation, the samples were filtered rapidly under vacuum through glass fiber filters (GF/B, Packard) presoaked with 0.3% PEI and rinsed several times with ice-cold 50 mM Tris-HCl using a 96-sample cell harvester (Unifilter, Packard). The filters were dried then counted for radioactivity in a scintillation counter (Topcount, Packard) using a scintillation cocktail (Microscint 0, Packard). The results are expressed as a percent inhibition of the control radioligand specific binding. The standard reference compound is testosterone, which is tested in each experiment at several concentrations to obtain a competition curve from which its IC50 is calculated.

[2] = Cellular growth inhibition, T-Rex 293 SC cells with doxycycline (progesterone receptor isoform B induced), Example 45; assay type: cell-based; conditions: progesterone receptor isoform B induced with 10 ng/mL doxycycline, 72 hours, CellTiter-Glo 2.0, Table 11
Method: The following types of cells were prepared for this experiment: (i) a T-Rex 293 cell line having increased expression of progesterone receptor isoform B protein due to exposure to doxycycline and (ii) a T-Rex 293 cell line lacking increased expression of progesterone receptor isoform B protein. Ability of the test compounds to inhibit proliferation of the foregoing cell types was evaluated according to the procedures set forth below.
The doxycycline-inducible progesterone receptor isoform B protein expressing cell line was established using the following protocol: T-Rex 293 cells were purchased from Invitrogen (Cat #R71007) and transfected using Lipofectamine 2000 with the wild-type progesterone receptor B protein sequence cloned into the pcDNA4/TO vector. Transfected cells were selected using 400 μg/mL Zeocin (Invitrogen Cat #R25001). Following selection, single clones were raised and maintained in Dulbecco's Modified Eagle Medium (DMEM) supplemented with 10% w/w Tetracycline-free fetal bovine serum (FBS) and 250 μg/mL Zeocin. Clones were analyzed for expression of progesterone receptor isoform B protein in the presence and absence of 10 ng/mL doxycycline (Sigma Cat #D9891), and a single doxycycline-inducible clone (hereinafter “SC”) was selected for use in downstream assays.
The SC cells were seeded on poly-D-lysine coated, black clear-bottom 384-well plates at 2500/well, in 25 μL Phenol Red Free Dulbecco's Modified Eagle Medium (DMEM) supplemented with 10% w/w charcoal-dextran treated fetal bovine serum (FBS) and 1% w/w pen-strep, with or without 10 ng/mL doxycycline. Pen-Strep is a commercially available mixture of penicillin G and streptomycin, which is used in mammalian cell culture media to prevent bacterial contamination. Phenol Red Free Dulbecco's Modified Eagle Medium (DMEM) supplemented with 10% w/w charcoal-dextran treated fetal bovine serum (FBS) and 1% w/w pen-strep, with or without 10 ng/mL doxycycline is herein referred to as Treatment Medium. Following seeding of cells in the plates, the plates were spun at 300×g for 30 seconds, then equilibrated to room temperature for 30 minutes, and then deposited in a humidified tissue culture incubator maintained at 37° C. with 5% CO2.
At 24 hours after seeding of the cells, dilutions of test compound were prepared in DMSO and dissolved in Treatment Medium, to achieve a final DMSO concentration of 0.5% w/w, thereby providing the Test Compound Solution. A 25 μL aliquot of the Test Compound Solution was added to cells in the well plates. An equal volume of a solution containing DMSO and Treatment Medium was used as a negative control. Following treatment of cells with Test Compound Solution or said equal volume of a solution containing DMSO and Treatment Medium, the plates were spun at 300×g for 30 seconds, and then left in an incubator for 72 hours.
At the end of the treatment duration, cell viability was quantified with CellTiter-Glo 2.0 reagent (Promega Cat #G9243). For this purpose, plates were equilibrated to room temperature for 30 minutes, and then 25 μL of CellTiter-Glo 2.0 reagent was added to cells in the plate wells. Plates were then agitated on a shaker for two minutes at 500 rpm and subsequently incubated at room temperature for 10 minutes. Following incubation, the plates were spun at 3000×g for 30 seconds, then sealed with an optical adhesive cover, and luminescence readings were measured with an EnVision Plate Reader (Perkin Elmer).
Data was normalized using zero luminescence for baseline. A four-parameter non-linear regression curve fit was applied to dose-response data in GraphPad Prism data analysis software to determine the half-maximal growth inhibitory concentration (GI50) for each test compound.

| Structure (SMILES) | Kd [1] [nM] | GI50 [2] [nM] |
| --- | --- | --- |
| CCNC(=O)C[C@@H]1N=C(c2ccc(N3CCN(CC4CCN(c5ncc(C(=O)N[C@H]6C(C)(C)[C@H](Oc7ccc(C#N)c(Cl)c7)C6(C)C)cn5)CC4)CC3)cc2)c2c(sc(C)c2C)-n2c(C)nnc21 [Compound I-105, N-[3-(3-chloro-4-cyano-phenoxy)-2,2,4,4-tetramethyl-cyclobutyl]-2-[4-[[4-[4-[(9S)-9-[2-(ethylamino)-2-oxo-ethyl]-4,5,13-trimethyl-3-thia-1,8,11,12-tetrazatricyclo[8.3.0.02,6]trideca-2(6),4,7,10,12-pentaen-7-yl]phenyl]piperazin-1-yl]methyl]-1-piperidyl]pyrimidine-5-carboxamide] | < 50 | < 500 |
| Cc1sc2c(c1C)C(c1ccc(C#CC3CC4(CCN(c5ncc(C(=O)N[C@H]6C(C)(C)[C@H](Oc7ccc(C#N)c(Cl)c7)C6(C)C)cn5)CC4)C3)cc1)=N[C@@H](Cc1ncco1)c1nnc(C)n1-2 [Compound I-267] |  | < 500 |
| Cc1sc2c(c1C)C(c1ccc(N3CC(CC4CCN(c5ncc(C(=O)N[C@H]6C(C)(C)[C@H](Oc7ccc(C#N)c(Cl)c7)C6(C)C)cn5)CC4)C3)cc1)=N[C@@H](C)c1nnc(C)n1-2 [Compound I-270] |  | < 500 |
| Cc1sc2c(c1C)C(c1ccc(N3CC(C4CCN(c5ncc(C(=O)N[C@H]6C(C)(C)[C@H](Oc7ccc(C#N)c(Cl)c7)C6(C)C)cn5)CC4)C3)cc1)=N[C@@H](C)c1nnc(C)n1-2 [Compound I-271] | < 50 | < 500 |
| Cc1sc2c(c1C)C(c1ccc(OC3CC4(C3)CC3(CCN(c5ncc(C(=O)N[C@H]6C(C)(C)[C@H](Oc7ccc(C#N)c(Cl)c7)C6(C)C)cn5)CC3)C4)cc1)=N[C@@H](Cc1ncco1)c1nnc(C)n1-2 [Compound I-283] | < 50 | < 500 |

Further lines, with some results ahead:

| Kd [1] [nM] | Structure (SMILES) | GI50 [2] [nM] |
| --- | --- | --- |
| < 50 | Cc1sc2c(c1C)C(c1ccc(Cl)cc1)=N[C@@H](CC(=O)NCCOCCOCCOC1CCN(c3ncc(C(=O)N[C@H]4C(C)(C)[C@H](Oc5ccc(C#N)c(Cl)c5)C4(C)C)cn3)CC1)c1nnc(C)n1-2 [Compound I-7] | < 500 |
| < 50 | Cc1sc2c(c1C)C(c1ccc(Cl)cc1)=N[C@H](CC(=O)NCCOCCOCCOCCOCCOCCOCCOC1CCN(c3ncc(C(=O)N[C@H]4C(C)(C)[C@H](Oc5ccc(C#N)c(Cl)c5)C4(C)C)cn3)CC1)c1nnc(C)n1-2 [Compound I-9] | < 500 |
| < 50 | Cc1sc2c(c1C)C(c1ccc(OCCOC3CCN(c4ncc(C(=O)N[C@H]5C(C)(C)[C@H](Oc6ccc(C#N)c(Cl)c6)C5(C)C)cn4)CC3)cc1)=N[C@@H](CC(=O)O)c1nnc(C)n1-2 [Compound I-38] | > 3000 |
| < 50 | Cc1sc2c(c1C)C(c1cccc(OCCOC3CCN(c4ncc(C(=O)N[C@H]5C(C)(C)[C@H](Oc6ccc(C#N)c(Cl)c6)C5(C)C)cn4)CC3)c1)=N[C@@H](CC(=O)O)c1nnc(C)n1-2 [Compound I-41] | > 3000 |
| < 50 | CCNC(=O)C[C@@H]1N=C(c2ccc(OCCOCCOC3CCN(c4ncc(C(=O)N[C@H]5C(C)(C)[C@H](Oc6ccc(C#N)c(Cl)c6)C5(C)C)cn4)CC3)cc2)c2c(sc(C)c2C)-n2c(C)nnc21 [Compound I-44] | < 500 |
| < 50 | CCNC(=O)C[C@@H]1N=C(c2cccc(OCCOC3CCN(c4ncc(C(=O)N[C@H]5C(C)(C)[C@H](Oc6ccc(C#N)c(Cl)c6)C5(C)C)cn4)CC3)c2)c2c(sc(C)c2C)-n2c(C)nnc21 [Compound I-46, N-((1r,3r)-3-(3-chloro-4-cyanophenoxy)-2,2,4,4-tetramethylcyclobutyl)-2-(4-(2-(3-((S)-6-(2-(ethylamino)-2-oxoethyl)-2,3,9-trimethyl-6H-thieno[3,2-f][1,2,4]triazolo[4,3-a][1,4]diazepin-4-yl)phenoxy)ethoxy)piperidin-1-yl)pyrimidine-5-carboxamide] | < 500 |
| < 50 | CCNC(=O)C[C@@H]1N=C(c2ccc(OCCCC#Cc3ncc(C(=O)N[C@H]4C(C)(C)[C@H](Oc5ccc(C#N)c(Cl)c5)C4(C)C)cn3)cc2)c2c(sc(C)c2C)-n2c(C)nnc21 [Compound I-83] | < 500 |
